Laboratory results as given in ChEMBL document CHEMBL1156113, “Synthesis of new sugar derivatives and evaluation of their antibacterial activities against Mycobacterium tuberculosis” (Bioorg Med Chem Lett, 2009).
In brackets after ≈: the same amount, converted by molar mass.

Tests used:
Format in all cases: functional
[1] = tested on: Mycobacterium tuberculosis; assay: Antimycobacterial activity against isoniazid, streptomycin-resistant Mycobacterium tuberculosis isolate A-4-25 by agar proportion method
[2] = tested on: Mycobacterium tuberculosis; assay: Antimycobacterial activity against multidrug-resistant Mycobacterium tuberculosis isolate P-1-50 by agar proportion method
[3] = tested on: Mycobacterium tuberculosis; assay: Antimycobacterial activity against multidrug-resistant Mycobacterium tuberculosis isolate K-3-6 by agar proportion method
[4] = tested on: Mycobacterium tuberculosis; assay: Antimycobacterial activity against multidrug-resistant Mycobacterium tuberculosis isolate A-2-6 by agar proportion method
[5] = tested on: Mycobacterium tuberculosis; assay: Antimycobacterial activity against multidrug-resistant Mycobacterium tuberculosis isolate N-4-11 by agar proportion method
[6] = tested on: Mycobacterium tuberculosis; assay: Antimycobacterial activity against multidrug-resistant Mycobacterium tuberculosis isolate U-2-15 by agar proportion method
[7] = tested on: Mycobacterium tuberculosis; assay: Antimycobacterial activity against streptomycin-resistant Mycobacterium tuberculosis isolate A-3-47 by agar proportion method
[8] = tested on: Mycobacterium tuberculosis; assay: Antimycobacterial activity against multidrug-resistant Mycobacterium tuberculosis isolate R-1-38 by agar proportion method
[9] = tested on: Mycobacterium tuberculosis; assay: Antimycobacterial activity against streptomycin-resistant Mycobacterium tuberculosis isolate A-4-8 by agar proportion method
[10] = tested on: Mycobacterium tuberculosis; assay: Antimycobacterial activity against multidrug-resistant Mycobacterium tuberculosis isolate U-4-6 by agar proportion method
[11] = tested on: Mycobacterium tuberculosis; assay: Antimycobacterial activity against rifampicin-resistant Mycobacterium tuberculosis isolate A-2-4 by agar proportion method
[12] = tested on: Mycobacterium tuberculosis; assay: Antimycobacterial activity against multidrug-resistant Mycobacterium tuberculosis isolate P-4-11 by agar proportion method
[13] = tested on: Mycobacterium tuberculosis; assay: Antimycobacterial activity against isoniazid, rifampicin-resistant Mycobacterium tuberculosis isolate J-1-19 by agar proportion method
[14] = tested on: Mycobacterium tuberculosis; assay: Antimycobacterial activity against multidrug-resistant Mycobacterium tuberculosis isolate N-5-2 by agar proportion method
[15] = tested on: Mycobacterium tuberculosis; assay: Antimycobacterial activity against multidrug-resistant Mycobacterium tuberculosis isolate Z-1-4 by agar proportion method
[16] = tested on: Mycobacterium tuberculosis; assay: Antimycobacterial activity against multidrug-resistant Mycobacterium tuberculosis isolate Q-4-1 by agar proportion method
[17] = tested on: Mycobacterium tuberculosis; assay: Antimycobacterial activity against isoniazid-resistant Mycobacterium tuberculosis isolate A-2-1 by agar proportion method
[18] = tested on: Mycobacterium tuberculosis; assay: Antimycobacterial activity against multidrug-resistant Mycobacterium tuberculosis isolate M-1-32 by agar proportion method
[19] = tested on: Mycobacterium tuberculosis; assay: Antimycobacterial activity against isoniazid, rifampicin-resistant Mycobacterium tuberculosis isolate A-2-3 by agar proportion method

## CC(=O)N[C@@H]1[C@@H](O)[C@H](O)[C@@H](CO)O[C@H]1SC(=S)N(C)C
[1]
  MIC: 6.25 µg/mL (≈ 19.3 µM)
[2]
  MIC: 6.25 µg/mL (≈ 19.3 µM)
[3]
  MIC: 6.25 µg/mL (≈ 19.3 µM)
[4]
  MIC: 6.25 µg/mL (≈ 19.3 µM)
[5]
  MIC: 6.25 µg/mL (≈ 19.3 µM)
[6]
  MIC: 3.12 µg/mL (≈ 9.62 µM)
[7]
  MIC: 6.25 µg/mL (≈ 19.3 µM)
[8]
  MIC: 6.25 µg/mL (≈ 19.3 µM)
[9]
  MIC: 6.25 µg/mL (≈ 19.3 µM)
[10]
  MIC: 6.25 µg/mL (≈ 19.3 µM)
[11]
  MIC: 6.25 µg/mL (≈ 19.3 µM)
[12]
  MIC: 6.25 µg/mL (≈ 19.3 µM)
[13]
  MIC: 6.25 µg/mL (≈ 19.3 µM)
[14]
  MIC: 1.56 µg/mL (≈ 4.81 µM)
[15]
  MIC: 6.25 µg/mL (≈ 19.3 µM)
[16]
  MIC: 6.25 µg/mL (≈ 19.3 µM)
[17]
  MIC: 6.25 µg/mL (≈ 19.3 µM)
[18]
  MIC: 6.25 µg/mL (≈ 19.3 µM)
[19]
  MIC: 3.12 µg/mL (≈ 9.62 µM)
